Reference: patent US7528106B2, “Compositions and methods for treatment of neovascular diseases” (The Scripps Research Institute, priority 2004, dated 2009)

Tested on: deep retinal vascular network formation in neonatal Balb/C mice
Assay: Neonatal mouse retinal angiogenesis model
Assay type: in vivo
Excerpt: Description of the Model. Immediately after birth (postnatal day zero; “P0”), retinal vasculature is virtually absent in the mouse. By four weeks after birth (P28) the retina has attained an adult pattern of retinal vessels coincident with the onset of vision. Physiological neovascularization of the retina occurs during this period via a stereotypical, biphasic developmental pattern of angiogenesis. During the primary phase of retinal vascular development, spoke-like peripapillary vessels grow radially from the central retinal artery and vein, becoming progressively interconnected by a capillary plexus that forms between them. This “inner retinal plexus” grows in area, volume and complexity, centrifugally, as a monolayer within the nerve fiber layer during the first seven to ten days following birth.
The second phase of retinal vessel formation begins between postnatal days 7 (P7) and 10 (P10) when collateral branches sprout from capillaries of the superficial plexus and penetrate into the retina where their tips branch and anastamose laterally to form a planar “deep vascular plexus”. While the deep vascular plexus is in place by P14, it undergoes extensive remodeling from P14 to P21. It is of interest to note that the formation of these vascular networks in the neonatal mouse are strikingly similar to the events occurring in the third trimester human fetus.
Advantages and Quantification of the Model. The reproducibility of the murine retinal development process and its easy accessibility in neonatal animals provide an opportunity to assess the efficacy of antiangiogenic compounds in a physiologically relevant model of angiogenesis. Additional advantages of the neonatal mouse model are the ability to qualitatively and quantitatively evaluate the angiostatic effect of putative antagonists of angiogenesis. Angiostatic activity was evaluated based upon the degree of angiogenesis in the deep, outer retinal vascular layer (secondary layer) that develops between P8 and P12. The appearance of the inner blood vessel network (primary layer) was evaluated for normal development and signs of toxicity.
Preparation of Compositions. Peptidomimetic integrin signaling inhibitor Compound (1) is solubilized in PBS at a concentration of about 20 mg/ml in PBS (1× concentration). T2-TrpRS is solubilized in PBS at a concentration of about 0.5 mg/ml (1× concentration). VEGF aptamer (pegaptanib sodium; Compound (2)) is solubilized in PBS at a concentration of about 2 mg/ml (1× concentration) to achieve an injection of approximately 1 μg/eye at 1× concentration. For all combination assays the compounds were prepared at 2 or 3 times the 1× concentration of each material and then combined to produce a final solution containing each individual compound at the same concentration as was used alone (e.g., 1×, 0.5×, 0.25× or 0.1×, as the case may be). For all assays, a single injection of 0.5 μl of PBS solutions of the drugs was administered intravitreally regardless of the number of compounds being injected. As used herein, the term “0.1×” refers to one tenth of the 1× concentration of a given material, “0.25×” refers to one quarter of the 1× concentration of a given material, “0.5×” refers to one half of the 1× concentration of a given material, and so forth for similar designations.
An in vivo angiogenesis assay in the neonatal mouse (Balb/C, The Jackson Laboratory, Bar Harbor, Me.) was used to evaluate the angiostatic activity of integrin signaling inhibitor Compound (1), T2-TrpRS, and VEGF aptamer Compound (2). Intravitreous injection and retina isolation was performed with a dissecting microscope (SMZ 645, Nikon, Japan). […] The samples (0.5 μl) were injected with a Hamilton syringe fitted with a 32-gauge needle (Hamilton Company, Reno, Nev.). The injection was made between the equator and the corneal limbus. During injection, the location of the needle tip was monitored by direct visualization to determine that it was in the vitreal cavity. […]

[1] = Ex 1, 0.5× (1×=2 mg/ml), intravitreal P8, read P12
[2] = Ex 2, 0.1× of each (1×: T2-TrpRS 0.5, Comp. (2) 2 mg/ml), intravitreal P4, read P12
[3] = Ex 3, 1× of each (T2-TrpRS 0.5, Comp. (2) 2 mg/ml), intravitreal P4, read P12
[4] = Ex 4, 0.5× (1×=2 mg/ml), intravitreal P4, read P12
[5] = Ex 6, 1× of each (T2-TrpRS 0.5, Comp. (2) 2 mg/ml), intravitreal P4, read P12
[6] = Ex 7, 1× (T2-TrpRS 0.5, Comp. (2) 2 mg/ml), intravitreal P4, read P12
[7] = Ex 8, 0.25× (1×=2 mg/ml), intravitreal P4, read P12
[8] = Ex 9, 1× of each (Comp. (1) 20, Comp. (2) 2, T2-TrpRS 0.5 mg/ml), intravitreal P4, read P12
[9] = Table 12, composite data from the Examples, 1× (Compound (2) 0.5× to 1×)
[10] = Table 13A, 1-2 μg per eye, intravitreal P7, read P12
[11] = Table 13C low dosing, 0.1x (integrin ant. 1.0 μg, VEGF apt. 0.20 μg, T2-TrpRS 0.025 μg)

Substance: pegaptanib sodium [Compound (2)]
- inhibition of neovascularization (0.1× concentrations (1 μg/eye integrin antagonist, 0.2 μg/eye VEGF aptamer, 0.025 μg/eye T2-TrpRS)): negligible
- % of eyes with 0-10% inhibition of deep vascular layer [1]: 20%
- % of eyes with 10-25% inhibition of deep vascular layer [1]: 20%
- % of eyes with 25-50% inhibition of deep vascular layer [1]: 20%
- % of eyes with 50-75% inhibition of deep vascular layer [1]: 20%
- % of eyes with 75-100% inhibition of deep vascular layer [1]: 40%
- % of eyes with 0-10% inhibition of deep vascular layer [2]: 87.5%
- % of eyes with 10-25% inhibition of deep vascular layer [2]: 12.5%
- % of eyes with 25-50% inhibition of deep vascular layer [2]: 0%
- % of eyes with 50-75% inhibition of deep vascular layer [2]: 0%
- % of eyes with 75-100% inhibition of deep vascular layer [2]: 0%
- % of eyes with 100% inhibition of deep vascular layer [2]: 0%
- % of eyes with >95% inhibition of deep vascular layer [2]: 0%
- % of eyes with 0-10% inhibition of deep vascular layer [3]: 37.5%
- % of eyes with 10-25% inhibition of deep vascular layer [3]: 12.5%
- % of eyes with 25-50% inhibition of deep vascular layer [3]: 12.5%
- % of eyes with 50-75% inhibition of deep vascular layer [3]: 12.5%
- % of eyes with 75-100% inhibition of deep vascular layer [3]: 25%
- % of eyes with 100% inhibition of deep vascular layer [3]: 0%
- % of eyes with >95% inhibition of deep vascular layer [3]: 0%
- % of eyes with 0-10% inhibition of deep vascular layer [4]: 60%
- % of eyes with 10-25% inhibition of deep vascular layer [4]: 30%
- % of eyes with 25-50% inhibition of deep vascular layer [4]: 0%
- % of eyes with 50-75% inhibition of deep vascular layer [4]: 0%
- % of eyes with 75-100% inhibition of deep vascular layer [4]: 10%
- % of eyes with 100% inhibition of deep vascular layer [4]: 0%
- % of eyes with >95% inhibition of deep vascular layer [4]: 0%
- % of eyes with 0-10% inhibition of deep vascular layer [5]: 37.5%
- % of eyes with 10-25% inhibition of deep vascular layer [5]: 25%
- % of eyes with 25-50% inhibition of deep vascular layer [5]: 12.5%
- % of eyes with 50-75% inhibition of deep vascular layer [5]: 25%
- % of eyes with 75-100% inhibition of deep vascular layer [5]: 0%
- % of eyes with 100% inhibition of deep vascular layer [5]: 0%
- % of eyes with >95% inhibition of deep vascular layer [5]: 0%
- % of eyes with 0-10% inhibition of deep vascular layer [6]: 25%
- % of eyes with 10-25% inhibition of deep vascular layer [6]: 25%
- % of eyes with 25-50% inhibition of deep vascular layer [6]: 0%
- % of eyes with 50-75% inhibition of deep vascular layer [6]: 12.5%
- % of eyes with 75-100% inhibition of deep vascular layer [6]: 37.5%
- % of eyes with 100% inhibition of deep vascular layer [6]: 0%
- % of eyes with >95% inhibition of deep vascular layer [6]: 0%
- % of eyes with 0-10% inhibition of deep vascular layer [7]: 54.5%
- % of eyes with 10-25% inhibition of deep vascular layer [7]: 36.4%
- % of eyes with 25-50% inhibition of deep vascular layer [7]: 0%
- % of eyes with 50-75% inhibition of deep vascular layer [7]: 0%
- % of eyes with 75-100% inhibition of deep vascular layer [7]: 9.1%
- % of eyes with 100% inhibition of deep vascular layer [7]: 0%
- % of eyes with >95% inhibition of deep vascular layer [7]: 0%
- % of eyes with 0-10% inhibition of deep vascular layer [8]: 25%
- % of eyes with 10-25% inhibition of deep vascular layer [8]: 0%
- % of eyes with 25-50% inhibition of deep vascular layer [8]: 12.5%
- % of eyes with 50-75% inhibition of deep vascular layer [8]: 12.5%
- % of eyes with 75-100% inhibition of deep vascular layer [8]: 50%
- % of eyes with 100% inhibition of deep vascular layer [8]: 12.5%
- % of eyes with >95% inhibition of deep vascular layer [8]: 25%
- % of mice with 0-10% inhibition of deep vascular layer [9]: 39.1%
- % of mice with 10-25% inhibition of deep vascular layer [9]: 20%
- % of mice with 25-50% inhibition of deep vascular layer [9]: 7.6%
- % of mice with 50-75% inhibition of deep vascular layer [9]: 11.9%
- % of mice with 75-100% inhibition of deep vascular layer [9]: 21.4%
- % of mice with 100% inhibition of deep vascular layer [9]: 2.4%
- % of mice with >95% inhibition of deep vascular layer [9]: 4.7%
- Percentage of retinas with 0-10% neovascular inhibition [10]: 39.1%
- Percentage of retinas with 10-25% neovascular inhibition [10]: 20.0%
- Percentage of retinas with 25-50% neovascular inhibition [10]: 7.6%
- Percentage of retinas with 50-75% neovascular inhibition [10]: 11.9%
- Percentage of retinas with 100% neovascular inhibition [10]: 2.4%
- Percentage of retinas with >75% neovascular inhibition [10]: 21.4%
- Percentage of retinas with >90% neovascular inhibition [10]: 4.7%
- Percentage of retinas with 0-10% neovascular inhibition [11]: 75%
- Percentage of retinas with 10-25% neovascular inhibition [11]: 25%
- Percentage of retinas with 25-50% neovascular inhibition [11]: 0%
- Percentage of retinas with 50-75% neovascular inhibition [11]: 0%
- Percentage of retinas with 100% neovascular inhibition [11]: 0%
- Percentage of retinas with >75% neovascular inhibition [11]: 0%
- Percentage of retinas with >90% neovascular inhibition [11]: 0%
- retinas that exhibited over 75% inhibition (monotherapy at optimal dose): 21%
- retinas unaffected by injection (monotherapy at the maximum individual dose): around 35%
